Results on one molecule are retold here after US10206909B2, “3-(1H-pyrrolo[2,3-B]pyridin-2-yl)-1H-pyrazolo[4,3-B]pyridines and therapeutic uses thereof” (Samumed, LLC, priority 2015, dated 2019).

Usually pEC50 stands for the negative decadic logarithm of the EC50, by convention in mol/L. A higher pEC50 goes with a low EC50.

Test [1] concerns Wnt activity (Sp5-Luc reporter, SW480 colon carcinoma cells). In words: Wnt activity screening assay: Sp5-Luc reporter gene assay in SW480 cells. The class given is cell-based. The conditions noted are these: Homo sapiens, SW480 cells, overnight incubation. An outline of the steps:
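Luminescence (BrightGlo) read after overnight 37 °C exposure of Sp5-Luc SW480 reporter cells, 4,000/well in 1% FBS, to compound dosed 1:3 over 10 points from 10 μM with 0.1% DMSO. Values normalized to DMSO-only cells, fitted with variable-slope four-parameter model; where EC50 exceeds 10 μM, % inhibition at 10 μM reported.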
(In general: A reporter such as luciferase makes a cellular process visible.)

In test [2] the test system is primary human fibroblasts derived from IPF patients (LL29 cells). In words: Inhibition of the fibrotic process: αSMA staining in TGF-β1 treated fibroblasts. The class given is cell-based. Particulars: Fibroblast, 96 h, LL29 cells, TGF-β1 20 ng/mL, 4 days, % αSMA positive cells. In short, it runs like this: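 EC50 from triplicate-well dose-response fits of % αSMA-positive cells, normalized to TGF-β1-stimulated DMSO controls, with SYTOX-positive dead cells excluded. LL29 IPF fibroblasts received compound at 10 μM–1.87 nM (0.1% DMSO) plus 20 ng/mL TGF-β1 for 4 days in 1% FBS medium; above 10 μM, % inhibition at 10 μM reported.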

pEC50: −log10 of the molar value.

Regarding `c1csc(-c2ccnc3[nH]c(-c4n[nH]c5ccc(-c6cncc(OC7CCNCC7)c6)nc45)cc23)c1` [Compound 704, 5-(5-(Piperidin-4-yloxy)pyridin-3-yl)-3-(4-(thiophen-2-yl)-1H-pyrrolo[2,3-b]pyridin-2-yl)-1H-pyrazolo[4,3-b]pyridine], the values for the pEC50 in test [1] and in test [2] were 5.43 and 5.74, respectively.
